The source of these data is US20240123079A1 (Seagen Inc., priority 2021, published 2024).

The test system of one data set is L540cy. The data set can be described thus: Cancer cell direct cytotoxicity assay (CellTiter-Glo), L540cy. The format is cell-based. The conditions noted are these: Homo sapiens, 96 h, free compound, read-out: Compound X50. How it is done:
(§1) Bystander activity of ADCs was evaluated using Renca cancer cells and THP1-Dual™ cells (InvivoGen) which contain an IRF-Lucia luciferase reporter. Cells were cultured in RPMI-1640 (Gibco) with 10% heat-inactivated fetal bovine serum, Pen-Strep (100 U/ml-100 μg/ml, Gibco), HEPES (10 mM, Gibco), sodium pyruvate (1 mM, Gibco), MEM non-essential amino acids (1×, Gibco), GlutaMAX (1×, Gibco), and beta-mercaptoethanol (55 μM, Gibco). Renca cells were plated in a 96-well flat bottom tissue culture-treated clear polystyrene plate (Corning Costar #3596) at 50,000 cells per well in 100 μL. On the day following the initial plating, 50,000 THP1-Dual™ cells were added to each well with the indicated concentration of ADC in a total volume of 200 μL. Supernatant was harvested at 48 hours post addition of the THP1-Dual™ cells. To measure Lucia reporter signal, 10 μL of supernatant was combined with 40 μL of QUANTI-Luc™ Luminescence assay reagent (Invivogen PN: rep-qlc1) in a 96-well clear flat bottom tissue culture-treated black polystyrene plate (Corning Costar PN: 3603) and read on a Perkin Elmer Envision plate reader. In some experiments, HEK 293T cells engineered to express a murine protein typically expressed by immune cells (target antigen C— an immune cell antigen) were plated as above instead of Renca tumor cells. Cancer Cell Direct Cytotoxicity Assay
(§2) Cancer cells were counted and plated in 40 μL complete growth media in 384-well, white-walled tissue culture treated plates (Corning). Cell plates were incubated at 37° C. and with 5% CO2 overnight to allow the cells to equilibrate. Stock solutions containing ADCs or free drugs were serially diluted in RPMI-1640+20% fetal bovine serum (FBS). 10 μL of each concentration were then added to each cell plate in duplicate. Cells were then incubated at 37° C. and with 5% CO2 for 96 hours, upon which, the cell plates were removed from the incubator and allowed to cool to room temperature for 30 minutes prior to analysis. […] The luminescence of the samples was measured using an EnVision Multimode plate reader (Perkin Elmer, Waltham, MA). […]

In the next data set the test system is MOLM-13. The data set can be described thus: Cancer cell direct cytotoxicity assay (CellTiter-Glo), MOLM-13. The format is cell-based. Particulars: Homo sapiens; MOLM-13, 96 h, free compound; read-out: Compound X50. How it is done: as §1, §2
In data set [1] the test system is THP1-Dual™ reporter cells. The data set can be described thus: THP1-Dual cell reporter assay (IRF-Lucia luciferase reporter). The format is cell-based, human. The conditions noted are these: 24 h, free compounds, 24 h, Lucia reporter signal, read-out: EC50. Summed up:
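THP1-Dual monocytic cells (~100,000/well) were exposed to compound for 24 h (ADCs 48 h). Secreted IRF-driven Lucia luciferase in the supernatant was quantified by QUANTI-Luc luminescence.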
Background: Reporter assays use an easily measured gene product as a stand-in for the process of interest.

The next data set relates to Karpas299. The data set can be described thus: Cancer cell direct cytotoxicity assay (CellTiter-Glo), Karpas299. The format is cell-based. The conditions noted are these: Homo sapiens, KARPAS-299; Karpas299, 96 h, free compound; read-out: Compound X50. As to the method: as §1, §2
For a further data set, the system named is A2058. The data set can be described thus: Cancer cell direct cytotoxicity assay (CellTiter-Glo), A2058. The data set is classed as cell-based. Particulars: Homo sapiens; A2058, 96 h, free compound; read-out: Compound X50. As to the method: as §1, §2
In general terms: In ATP-based viability assays light output follows the ATP content of the culture.

A further data set has as its system BxPC3. The data set can be described thus: Cancer cell direct cytotoxicity assay (CellTiter-Glo), BxPC3. The format is cell-based. The conditions noted are these: Homo sapiens, BXPC-3; BxPC3, 96 h, free compound; read-out: Compound X50. How it is done: as §1, §2
The subject of another data set is DELBVR. The data set can be described thus: Cancer cell direct cytotoxicity assay (CellTiter-Glo), DELBVR. Particulars: Homo sapiens, 96 h, free compound, read-out: Compound X50. The data set is classed as cell-based. As to the method: as §1, §2
In another data set the test system is Ls174T. The data set can be described thus: Cancer cell direct cytotoxicity assay (CellTiter-Glo), Ls174T. The format is cell-based. Particulars: Homo sapiens, 96 h, free compound, read-out: Compound X50. How it is done: as §1, §2
A further data set has as its system MDAMB231. The data set can be described thus: Cancer cell direct cytotoxicity assay (CellTiter-Glo), MDAMB231. The data set is classed as cell-based. Particulars: Homo sapiens, MDA-MB-231; MDAMB231, 96 h, free compound; read-out: Compound X50. As to the method:
as §1, §2

Another data set relates to DEL. Nature of the data set: Cancer cell direct cytotoxicity assay (CellTiter-Glo), DEL. The conditions noted are these: Homo sapiens, 96 h, free compound, read-out: Compound X50. The data set is classed as cell-based. How it is done: as §1, §2
The next data set has as its system human cancer cell lines. The data set can be described thus: Cancer cell direct cytotoxicity assay, panel statement. The conditions noted are these: panel of human cancer cell lines. The format is cell-based. As to the method: as §1
Cancer cells were counted and plated in 40 μL complete growth media in 384-well, white-walled tissue culture treated plates (Corning). Cell plates were incubated at 37° C. and with 5% CO2 overnight to allow the cells to equilibrate. […] The luminescence of the samples was measured using an EnVision Multimode plate reader (Perkin Elmer, Waltham, MA). […]
Compound 12a was conjugated to both targeted and non-binding antibodies using a variety of non-cleavable linkers (12, 17, 19-24) and the resulting ADCs were assessed for their ability to activate THP1-Dual™ reporter cells. […] We also evaluated the ability of these linkers to directly kill cancer cells when conjugated to targeted mAbs binding tumor antigen A or antigen B (CD30).

The subject of a further data set is 786-O. The data set can be described thus: Cancer cell direct cytotoxicity assay (CellTiter-Glo), 786-O. The data set is classed as cell-based. Particulars: Homo sapiens, 786-0, 96 h, free compound, read-out: Compound X50. As to the method: as §1, §2
Another data set concerns SU-DHL-4. The data set can be described thus: Cancer cell direct cytotoxicity assay (CellTiter-Glo), SU-DHL-4. The format is cell-based. Particulars: Homo sapiens; SU-DHL-4, 96 h, free compound; read-out: Compound X50. As to the method: as §1, §2

pEC50, pIC50: −log10 of the molar value. Like-named read-outs stand apart in the source and are kept apart here.

For `CCn1nc(C)cc1C(=O)Nc1nc2cc(C(N)=O)cc(OC)c2n1C/C=C/Cn1c(NC(=O)c2cc(C)nn2CC)nc2cc(C(N)=O)cc(OCCCN(C)C(=O)CCN3C(=O)CC(SC[C@H](N)C(=O)O)C3=O)c21` (stereo partly drawn) [Compound 16, S-(1-(3-((3-((5-carbamoyl-1-((E)-4-(5-carbamoyl-2-(1-ethyl-3-methyl-1H-pyrazole-5-carboxamido)-7-methoxy-1H-benzo[d]imidazol-1-yl)but-2-en-1-yl)-2-(1-ethyl-3-methyl-1H-pyrazole-5-carboxamido)-1H-benzo[d]imidazol-7-yl)oxy)propyl)(methyl)amino)-3-oxopropyl)-2,5-dioxopyrrolidin-3-yl)-L-cysteine], the pIC50 was 7.54 in the data set on L540cy; 7.57 in the data set on MOLM-13; less than 6.00 in the data set on Karpas299; less than 6.00 in the data set on A2058; less than 6.00 in the data set with BxPC3; 8.15 in the data set with DELBVR. Also, the pIC50 with Ls174T is less than 6.00; with MDAMB231 it was less than 6.00; in the data set on DEL it was 8.40; in the data set with 786-O, less than 6.00; with SU-DHL-4, less than 6.00. Moreover, the pEC50 (usually the negative decadic logarithm of the EC50, by convention in mol/L) in data set [1] (Homo sapiens, THP1-Dual) is 7.47; in [1] it was 7.28. Further, the “direct cytotoxic activity on cancer cell lines” value in the data set with human cancer cell lines is “demonstrated direct cytotoxic activity on a subset of cancer cell lines”.
